{"source": "paper PMC8799717", "about": "“Pharmacological targeting PIKfyve and tubulin as an effective treatment strategy for double-hit lymphoma” (Cell Death Discovery, 2022)", "experiment_in_all_cases": "biochemical", "set-up_in_all_cases": "KINOMEscan active-site-directed competition binding panel, 468 kinases, percent of DMSO control at 1 uM", "conditions_in_all_cases": "KINOMEscan binding, percent of DMSO control; read-out: Ctrl%", "key": {"DRAK2": {"target": "T1, DRAK2 (Homo sapiens, UniProt O94768)", "T1 construct": "gene STK17B"}, "EIF2AK1": {"target": "EIF2AK1 (Homo sapiens, UniProt Q9BQI3)"}, "CTK": {"target": "T2, CTK (Homo sapiens, UniProt P42679)", "T2 construct": "gene MATK"}, "SBK1": {"target": "SBK1 (Homo sapiens, UniProt Q52WX2)", "sequence (Q52WX2 whole entry)": "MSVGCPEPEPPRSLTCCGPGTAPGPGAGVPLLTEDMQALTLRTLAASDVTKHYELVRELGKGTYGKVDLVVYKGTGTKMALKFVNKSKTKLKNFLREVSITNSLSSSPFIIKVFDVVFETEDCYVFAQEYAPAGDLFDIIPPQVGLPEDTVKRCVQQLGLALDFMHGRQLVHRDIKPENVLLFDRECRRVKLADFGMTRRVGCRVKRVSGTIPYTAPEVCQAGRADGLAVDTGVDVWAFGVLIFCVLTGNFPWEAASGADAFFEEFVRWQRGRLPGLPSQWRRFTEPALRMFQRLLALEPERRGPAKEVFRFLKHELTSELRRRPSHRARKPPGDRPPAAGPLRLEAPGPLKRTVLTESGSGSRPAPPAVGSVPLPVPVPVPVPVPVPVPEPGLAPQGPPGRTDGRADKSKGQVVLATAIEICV"}, "PIM2": {"target": "PIM2 (Homo sapiens, UniProt Q9P1W9)", "sequence (Q9P1W9 whole entry)": "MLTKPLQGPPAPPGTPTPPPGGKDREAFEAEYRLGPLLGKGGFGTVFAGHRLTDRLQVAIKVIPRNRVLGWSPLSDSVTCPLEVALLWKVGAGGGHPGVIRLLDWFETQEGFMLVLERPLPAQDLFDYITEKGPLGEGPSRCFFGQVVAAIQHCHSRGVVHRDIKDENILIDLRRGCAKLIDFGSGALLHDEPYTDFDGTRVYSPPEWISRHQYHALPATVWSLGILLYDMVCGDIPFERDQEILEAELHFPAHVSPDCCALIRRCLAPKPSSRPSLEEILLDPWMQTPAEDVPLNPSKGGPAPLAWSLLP"}, "MYLK4": {"target": "MYLK4 (Homo sapiens, UniProt Q86YV6)"}, "WNK3": {"target": "WNK3 (Homo sapiens, UniProt Q9BYP7)"}, "MAPKAPK5": {"target": "MAPKAPK5 (Homo sapiens, UniProt Q8IW41)", "sequence (Q8IW41 whole entry)": "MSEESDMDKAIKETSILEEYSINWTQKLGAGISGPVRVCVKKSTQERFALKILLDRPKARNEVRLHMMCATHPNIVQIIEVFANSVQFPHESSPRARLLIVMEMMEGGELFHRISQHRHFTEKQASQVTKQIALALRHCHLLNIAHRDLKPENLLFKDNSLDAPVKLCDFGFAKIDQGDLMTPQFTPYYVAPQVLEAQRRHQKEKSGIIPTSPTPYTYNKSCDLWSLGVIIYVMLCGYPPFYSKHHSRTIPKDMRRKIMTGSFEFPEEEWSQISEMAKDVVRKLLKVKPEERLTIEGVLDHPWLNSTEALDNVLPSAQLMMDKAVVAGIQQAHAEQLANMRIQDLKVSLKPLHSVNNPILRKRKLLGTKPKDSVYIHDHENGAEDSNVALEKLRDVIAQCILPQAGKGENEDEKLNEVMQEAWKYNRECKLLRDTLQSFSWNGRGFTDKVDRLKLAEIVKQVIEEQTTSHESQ"}, "PIK3CB": {"target": "PIK3CB (Homo sapiens, UniProt P42338)"}, "p38-gamma": {"target": "T3, p38-gamma (Homo sapiens, UniProt P53778)", "T3 construct": "gene MAPK12"}, "GCN2(Kin.Dom.2,S808G)": {"target": "T4, GCN2(Kin.Dom.2,S808G) (Homo sapiens, UniProt Q9P2K8, S808G)", "T4 construct": "gene EIF2AK4; Kin.Dom.2"}, "CDC2L1": {"target": "T5, CDC2L1 (Homo sapiens, UniProt P21127)", "T5 construct": "gene CDK11B"}, "IRAK3": {"target": "IRAK3 (Homo sapiens, UniProt Q9Y616)", "sequence (Q9Y616 whole entry)": "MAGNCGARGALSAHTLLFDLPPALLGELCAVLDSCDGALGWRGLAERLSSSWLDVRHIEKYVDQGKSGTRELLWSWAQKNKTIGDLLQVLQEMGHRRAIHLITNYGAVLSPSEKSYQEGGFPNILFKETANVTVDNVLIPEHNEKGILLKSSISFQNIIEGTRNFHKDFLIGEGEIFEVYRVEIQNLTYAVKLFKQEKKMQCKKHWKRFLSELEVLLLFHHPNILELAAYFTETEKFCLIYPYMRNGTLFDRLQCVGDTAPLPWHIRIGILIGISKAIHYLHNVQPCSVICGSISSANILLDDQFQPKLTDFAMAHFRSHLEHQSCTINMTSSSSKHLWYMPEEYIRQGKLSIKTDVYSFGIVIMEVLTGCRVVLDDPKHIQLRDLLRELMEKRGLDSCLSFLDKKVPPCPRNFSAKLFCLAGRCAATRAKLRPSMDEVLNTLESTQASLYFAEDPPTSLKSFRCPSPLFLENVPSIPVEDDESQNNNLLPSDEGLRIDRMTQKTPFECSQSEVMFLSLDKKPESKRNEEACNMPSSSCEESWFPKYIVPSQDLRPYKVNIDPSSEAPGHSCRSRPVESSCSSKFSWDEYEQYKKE"}, "PIK3C2B": {"target": "PIK3C2B (Homo sapiens, UniProt O00750)"}, "LZK": {"target": "T6, LZK (Homo sapiens, UniProt O43283)", "T6 construct": "gene MAP3K13"}, "CAMK2D": {"target": "CAMK2D (Homo sapiens, UniProt Q13557)"}, "MLK2": {"target": "T7, MLK2 (Homo sapiens, UniProt Q02779)", "T7 construct": "gene MAP3K10"}, "ERK4": {"target": "T8, ERK4 (Homo sapiens, UniProt P31152)", "T8 construct": "gene MAPK4"}, "[1]": {"target": "T9, RPS6KA4(Kin.Dom.1-N-terminal) (Homo sapiens, UniProt O75676)", "T9 construct": "Kin.Dom.1-N-terminal"}, "MAP3K3": {"target": "MAP3K3 (Homo sapiens, UniProt Q99759)"}, "EPHA5": {"target": "EPHA5 (Homo sapiens, UniProt P54756)", "sequence (P54756 whole entry)": "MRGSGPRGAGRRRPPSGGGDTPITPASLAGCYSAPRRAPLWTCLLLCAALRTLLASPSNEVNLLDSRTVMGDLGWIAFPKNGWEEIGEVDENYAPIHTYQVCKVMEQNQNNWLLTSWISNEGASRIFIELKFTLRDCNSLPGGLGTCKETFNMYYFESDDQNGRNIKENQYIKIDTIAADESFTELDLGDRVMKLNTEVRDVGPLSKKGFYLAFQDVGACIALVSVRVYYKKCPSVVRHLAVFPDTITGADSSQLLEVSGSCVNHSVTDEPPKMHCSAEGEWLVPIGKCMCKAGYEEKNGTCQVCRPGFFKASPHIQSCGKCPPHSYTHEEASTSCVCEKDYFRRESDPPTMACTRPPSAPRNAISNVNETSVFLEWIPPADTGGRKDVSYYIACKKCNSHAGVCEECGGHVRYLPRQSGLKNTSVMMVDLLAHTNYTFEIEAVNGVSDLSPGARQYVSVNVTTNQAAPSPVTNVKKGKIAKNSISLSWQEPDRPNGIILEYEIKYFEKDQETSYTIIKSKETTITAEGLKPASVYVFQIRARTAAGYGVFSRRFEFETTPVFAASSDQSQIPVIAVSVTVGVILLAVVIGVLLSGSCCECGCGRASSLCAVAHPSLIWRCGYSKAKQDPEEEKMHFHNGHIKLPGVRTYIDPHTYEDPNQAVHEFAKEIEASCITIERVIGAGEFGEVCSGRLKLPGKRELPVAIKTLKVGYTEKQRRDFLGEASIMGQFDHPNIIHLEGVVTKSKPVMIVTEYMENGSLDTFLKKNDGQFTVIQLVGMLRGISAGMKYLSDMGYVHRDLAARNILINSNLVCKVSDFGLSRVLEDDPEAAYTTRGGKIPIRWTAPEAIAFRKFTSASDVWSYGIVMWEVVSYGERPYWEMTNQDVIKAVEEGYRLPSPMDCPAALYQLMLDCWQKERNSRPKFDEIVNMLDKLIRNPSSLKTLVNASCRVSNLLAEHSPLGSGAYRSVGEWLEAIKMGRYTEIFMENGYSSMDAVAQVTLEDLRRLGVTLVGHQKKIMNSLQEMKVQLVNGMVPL"}, "FLT3-autoinhibited": {"target": "FLT3-autoinhibited (Homo sapiens, UniProt P36888)", "sequence (P36888 whole entry)": "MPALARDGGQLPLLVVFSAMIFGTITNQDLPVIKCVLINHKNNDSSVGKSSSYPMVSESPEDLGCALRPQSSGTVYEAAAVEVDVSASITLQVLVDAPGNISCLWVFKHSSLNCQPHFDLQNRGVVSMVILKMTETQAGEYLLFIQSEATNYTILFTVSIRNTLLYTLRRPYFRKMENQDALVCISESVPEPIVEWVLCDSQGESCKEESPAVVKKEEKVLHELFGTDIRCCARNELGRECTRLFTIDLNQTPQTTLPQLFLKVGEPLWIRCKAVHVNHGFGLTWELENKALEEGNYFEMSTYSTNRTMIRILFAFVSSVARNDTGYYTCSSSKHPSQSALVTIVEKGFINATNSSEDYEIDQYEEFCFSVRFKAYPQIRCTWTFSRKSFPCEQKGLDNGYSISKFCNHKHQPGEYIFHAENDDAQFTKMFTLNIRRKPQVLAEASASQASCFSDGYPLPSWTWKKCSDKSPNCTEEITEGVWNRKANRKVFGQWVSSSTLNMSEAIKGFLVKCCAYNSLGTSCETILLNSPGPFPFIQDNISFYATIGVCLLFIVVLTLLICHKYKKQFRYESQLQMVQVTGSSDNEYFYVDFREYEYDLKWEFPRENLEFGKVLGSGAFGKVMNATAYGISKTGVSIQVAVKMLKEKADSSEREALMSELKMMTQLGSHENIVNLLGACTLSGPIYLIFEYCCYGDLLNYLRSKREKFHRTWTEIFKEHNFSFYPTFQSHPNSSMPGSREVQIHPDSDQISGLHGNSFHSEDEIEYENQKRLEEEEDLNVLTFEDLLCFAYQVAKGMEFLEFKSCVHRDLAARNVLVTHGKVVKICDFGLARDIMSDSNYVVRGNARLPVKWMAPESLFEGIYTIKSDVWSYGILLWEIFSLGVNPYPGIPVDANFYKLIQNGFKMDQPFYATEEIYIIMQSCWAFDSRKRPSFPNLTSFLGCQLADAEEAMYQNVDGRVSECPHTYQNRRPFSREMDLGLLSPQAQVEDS"}, "SLK": {"target": "SLK (Homo sapiens, UniProt Q9H2G2)", "sequence (Q9H2G2 whole entry)": "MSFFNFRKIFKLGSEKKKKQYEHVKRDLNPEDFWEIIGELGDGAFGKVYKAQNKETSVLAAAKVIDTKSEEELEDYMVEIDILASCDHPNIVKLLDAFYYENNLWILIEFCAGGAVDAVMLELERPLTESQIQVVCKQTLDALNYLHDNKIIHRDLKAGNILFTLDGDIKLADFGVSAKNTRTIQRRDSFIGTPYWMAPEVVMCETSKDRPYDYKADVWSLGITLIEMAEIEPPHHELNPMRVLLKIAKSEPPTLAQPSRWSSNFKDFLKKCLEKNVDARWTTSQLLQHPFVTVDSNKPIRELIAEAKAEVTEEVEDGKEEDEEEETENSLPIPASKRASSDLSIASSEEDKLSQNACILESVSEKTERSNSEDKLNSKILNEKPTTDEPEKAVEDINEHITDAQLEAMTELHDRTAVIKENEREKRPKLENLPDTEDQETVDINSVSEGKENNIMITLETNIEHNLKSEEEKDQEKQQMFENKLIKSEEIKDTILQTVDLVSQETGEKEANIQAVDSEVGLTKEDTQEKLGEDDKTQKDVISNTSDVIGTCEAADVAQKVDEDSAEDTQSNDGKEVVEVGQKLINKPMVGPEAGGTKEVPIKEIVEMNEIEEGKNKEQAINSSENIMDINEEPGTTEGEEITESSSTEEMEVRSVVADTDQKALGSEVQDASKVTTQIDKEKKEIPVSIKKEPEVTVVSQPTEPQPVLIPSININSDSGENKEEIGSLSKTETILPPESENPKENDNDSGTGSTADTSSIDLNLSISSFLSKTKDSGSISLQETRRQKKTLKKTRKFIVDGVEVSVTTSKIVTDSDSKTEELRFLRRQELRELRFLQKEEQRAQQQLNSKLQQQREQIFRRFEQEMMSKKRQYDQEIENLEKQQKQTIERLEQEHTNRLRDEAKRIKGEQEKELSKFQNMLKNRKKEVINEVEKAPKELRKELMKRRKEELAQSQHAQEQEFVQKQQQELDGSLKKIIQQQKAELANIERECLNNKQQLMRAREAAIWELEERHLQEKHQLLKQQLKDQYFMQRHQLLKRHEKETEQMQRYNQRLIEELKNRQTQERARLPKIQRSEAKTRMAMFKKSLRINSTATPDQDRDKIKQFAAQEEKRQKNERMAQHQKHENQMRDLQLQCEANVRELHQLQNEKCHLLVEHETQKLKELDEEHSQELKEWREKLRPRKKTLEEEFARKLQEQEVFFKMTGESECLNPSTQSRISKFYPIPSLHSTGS"}, "WNK2": {"target": "WNK2 (Homo sapiens, UniProt Q9Y3S1)"}}, "data": [{"smiles": "Cc1ccc(NC(=O)c2cccc(C(F)(F)F)c2)cc1Nc1cc(-c2cccnc2)nc2[nH]ccc12", "note": "[HZX-02-059]", "values": [{"measurement": "remaining binding at 1 µM", "setting": "DRAK2", "value": 88, "unit": "%"}, {"measurement": "remaining binding at 1 µM", "setting": "EIF2AK1", "value": 79, "unit": "%"}, {"measurement": "remaining binding at 1 µM", "setting": "CTK", "value": 56, "unit": "%"}, {"measurement": "remaining binding at 1 µM", "setting": "SBK1", "value": 88, "unit": "%"}, {"measurement": "remaining binding at 1 µM", "setting": "PIM2", "value": 88, "unit": "%"}, {"measurement": "remaining binding at 1 µM", "setting": "MYLK4", "value": 90, "unit": "%"}, {"measurement": "remaining binding at 1 µM", "setting": "WNK3", "value": 100, "unit": "%"}, {"measurement": "remaining binding at 1 µM", "setting": "MAPKAPK5", "value": 100, "unit": "%"}, {"measurement": "remaining binding at 1 µM", "setting": "PIK3CB", "value": 74, "unit": "%"}, {"measurement": "remaining binding at 1 µM", "setting": "p38-gamma", "value": 92, "unit": "%"}, {"measurement": "remaining binding at 1 µM", "setting": "GCN2(Kin.Dom.2,S808G)", "value": 100, "unit": "%"}, {"measurement": "remaining binding at 1 µM", "setting": "CDC2L1", "value": 75, "unit": "%"}, {"measurement": "remaining binding at 1 µM", "setting": "IRAK3", "value": 92, "unit": "%"}, {"measurement": "remaining binding at 1 µM", "setting": "PIK3C2B", "value": 100, "unit": "%"}, {"measurement": "remaining binding at 1 µM", "setting": "LZK", "value": 100, "unit": "%"}, {"measurement": "remaining binding at 1 µM", "setting": "CAMK2D", "value": 100, "unit": "%"}, {"measurement": "remaining binding at 1 µM", "setting": "MLK2", "value": 97, "unit": "%"}, {"measurement": "remaining binding at 1 µM", "setting": "ERK4", "value": 99, "unit": "%"}, {"measurement": "remaining binding at 1 µM", "setting": "[1]", "value": 93, "unit": "%"}, {"measurement": "remaining binding at 1 µM", "setting": "MAP3K3", "value": 89, "unit": "%"}, {"measurement": "remaining binding at 1 µM", "setting": "EPHA5", "value": 17, "unit": "%"}, {"measurement": "remaining binding at 1 µM", "setting": "FLT3-autoinhibited", "value": 98, "unit": "%"}, {"measurement": "remaining binding at 1 µM", "setting": "SLK", "value": 100, "unit": "%"}, {"measurement": "remaining binding at 1 µM", "setting": "WNK2", "value": 100, "unit": "%"}]}]}
